# Results: ChEMBL document CHEMBL1151111, “Antitumor agents, 99. Synthetic ring C aromatized podophyllotoxin analogues as potential inhibitors of human DNA topoisomerase II” (1988)
# Activity calls are given as the source filed them. The rule behind the calls is not given here.
# Columns and labels:
# KB = assay: Cytotoxicity against human KB cells; assay type: functional; settings: read-out: ED50 (the source's name)
# Homo sapiens [1] = organism: Homo sapiens; assay: Inhibition of human DNA topoisomerase 2 at 400 uM
# Homo sapiens [2] = organism: Homo sapiens; assay: Inhibition of human DNA topoisomerase 2 at 200 uM
# P388 = assay: In vivo cytotoxicity against mouse P388 cells at 50 mg/kg/day relative to control; assay type: functional
SMILES,EC50 (KB) [µg/mL],inhibition (Homo sapiens [1]) [%],inhibition (Homo sapiens [2]),T/C (P388) [%]
COc1cc([C@@H]2c3cc4c(cc3[C@@H](O)[C@H]3COC(=O)[C@H]23)OCO4)cc(OC)c1O [4'-DEMETHYLEPIPODOPHYLLOTOXIN],0.1,50,–,–
COc1cc(-c2c3c(c(O)c4cc5c(cc24)OCO5)COC3=O)cc(OC)c1OC [DEHYDROPODOPHYLLOTOXIN],4,–,inactive,–
COc1cc2c(OC)c3c(c(-c4ccc5c(c4)OCO5)c2cc1OC)C(=O)OC3 [JUSTICIDIN A],< 1,–,–,150
COc1cc2c(O)c3c(c(-c4ccc5c(c4)OCO5)c2cc1OC)C(=O)OC3 [DIPHYLLIN],< 1,–,–,150
CCCOc1c2c(c(-c3cc(OC)c(OC)c(OC)c3)c3cc4c(cc13)OCO4)C(=O)OC2 [DEHYDROPODOPHYLLOTOXIN PROPYL ETHER],4,–,inactive,–
CCO[C@@H]1c2cc3c(cc2[C@@H](c2cc(OC)c(O)c(OC)c2)[C@H]2C(=O)OC[C@@H]21)OCO3,1.1,25,–,–
COc1cc(-c2c3c(c(O)c4cc5c(cc24)OCO5)COC3=O)cc(OC)c1O,2.2,–,inactive,–
COc1cc([C@@H]2c3cc4c(cc3[C@@H](O[C@@H]3O[C@@H]5CO[C@@H](C)O[C@H]5[C@H](O)[C@H]3O)[C@H]3COC(=O)[C@H]23)OCO4)cc(OC)c1O [ETOPOSIDE],0.1,85,80%,–
CCOc1c2c(c(-c3cc(OC)c(OC)c(OC)c3)c3cc4c(cc13)OCO4)C(=O)OC2 [DEHYDROPODOPHYLLOTOXIN ETHYL ETHER],4,–,inactive,–
CCOc1c2c(c(-c3cc(OC)c(O)c(OC)c3)c3cc4c(cc13)OCO4)C(=O)OC2,4,–,inactive,–
